Measured values from BigSolDB 2.1.

Compound NC(=O)c1ccc([N+](=O)[O-])cc1 has a solubility (mole fraction) (in DMF, 283.15 K) of 0.037, a solubility (mole fraction) (in DMF, 288.15 K) of 0.0416 and a solubility (mole fraction) (in DMF, 293.15 K) of 0.0492. The solubility (mole fraction) (in DMF, 298.15 K) was 0.0576, the solubility (mole fraction) (in DMF, 303.15 K) was 0.0691 and the solubility (mole fraction) (in DMF, 308.15 K) was 0.0811. The solubility (mole fraction) (in DMF, 313.15 K) was 0.0945, the solubility (mole fraction) (in DMF, 318.15 K) was 0.109 and the solubility (mole fraction) (in DMF, 323.15 K) was 0.123. It also gave a solubility (mole fraction) (in DMF, 328.15 K) of 0.139, a solubility (mole fraction) (in DMSO, 293.15 K) of 0.0372 and a solubility (mole fraction) (in DMSO, 298.15 K) of 0.0425. For the same compound, the solubility (mole fraction) (in DMSO, 303.15 K) was 0.0504, the solubility (mole fraction) (in DMSO, 308.15 K) was 0.0613 and the solubility (mole fraction) (in DMSO, 313.15 K) was 0.0747. It also gave a solubility (mole fraction) (in DMSO, 318.15 K) of 0.0888, a solubility (mole fraction) (in DMSO, 323.15 K) of 0.103 and a solubility (mole fraction) (in DMSO, 328.15 K) of 0.117. For the same compound, the solubility (mole fraction) (in NMP, 283.15 K) was 0.0418, the solubility (mole fraction) (in NMP, 288.15 K) was 0.0472 and the solubility (mole fraction) (in NMP, 293.15 K) was 0.0549. It also gave a solubility (mole fraction) (in NMP, 298.15 K) of 0.0653, a solubility (mole fraction) (in NMP, 303.15 K) of 0.0775 and a solubility (mole fraction) (in NMP, 308.15 K) of 0.0917. It also gave a solubility (mole fraction) (in NMP, 313.15 K) of 0.108, a solubility (mole fraction) (in NMP, 318.15 K) of 0.125 and a solubility (mole fraction) (in NMP, 323.15 K) of 0.144. For the same compound, the solubility (mole fraction) (in NMP, 328.15 K) was 0.169, the solubility (mole fraction) (in acetonitrile, 283.15 K) was 0.000628 and the solubility (mole fraction) (in acetonitrile, 288.15 K) was 0.000806. It also gave a solubility (mole fraction) (in acetonitrile, 293.15 K) of 0.000994, a solubility (mole fraction) (in acetonitrile, 298.15 K) of 0.00126 and a solubility (mole fraction) (in acetonitrile, 303.15 K) of 0.00155. It also gave a solubility (mole fraction) (in acetonitrile, 308.15 K) of 0.00195, a solubility (mole fraction) (in acetonitrile, 313.15 K) of 0.00232 and a solubility (mole fraction) (in acetonitrile, 318.15 K) of 0.0028. It also gave a solubility (mole fraction) (in acetonitrile, 323.15 K) of 0.00332, a solubility (mole fraction) (in acetonitrile, 328.15 K) of 0.00396 and a solubility (mole fraction) (in ethanol, 283.15 K) of 0.00157. For the same compound, the solubility (mole fraction) (in ethanol, 288.15 K) was 0.00182, the solubility (mole fraction) (in ethanol, 293.15 K) was 0.00231 and the solubility (mole fraction) (in ethanol, 298.15 K) was 0.00287. The solubility (mole fraction) (in ethanol, 303.15 K) was 0.00351, the solubility (mole fraction) (in ethanol, 308.15 K) was 0.00429 and the solubility (mole fraction) (in ethanol, 313.15 K) was 0.00513. The solubility (mole fraction) (in ethanol, 318.15 K) was 0.00616, the solubility (mole fraction) (in ethanol, 323.15 K) was 0.00735 and the solubility (mole fraction) (in ethanol, 328.15 K) was 0.00882. The solubility (mole fraction) (in ethyl acetate, 283.15 K) was 0.00203, the solubility (mole fraction) (in ethyl acetate, 288.15 K) was 0.00236 and the solubility (mole fraction) (in ethyl acetate, 293.15 K) was 0.00286. It also gave a solubility (mole fraction) (in ethyl acetate, 298.15 K) of 0.00376, a solubility (mole fraction) (in ethyl acetate, 303.15 K) of 0.00471 and a solubility (mole fraction) (in ethyl acetate, 308.15 K) of 0.00583. For the same compound, the solubility (mole fraction) (in ethyl acetate, 313.15 K) was 0.00706, the solubility (mole fraction) (in ethyl acetate, 318.15 K) was 0.0086 and the solubility (mole fraction) (in ethyl acetate, 323.15 K) was 0.0103. It also gave a solubility (mole fraction) (in ethyl acetate, 328.15 K) of 0.0122, a solubility (mole fraction) (in ethylene glycol, 283.15 K) of 0.00356 and a solubility (mole fraction) (in ethylene glycol, 288.15 K) of 0.00417. For the same compound, the solubility (mole fraction) (in ethylene glycol, 293.15 K) was 0.00496, the solubility (mole fraction) (in ethylene glycol, 298.15 K) was 0.006 and the solubility (mole fraction) (in ethylene glycol, 303.15 K) was 0.00719. It also gave a solubility (mole fraction) (in ethylene glycol, 308.15 K) of 0.00873, a solubility (mole fraction) (in ethylene glycol, 313.15 K) of 0.0102 and a solubility (mole fraction) (in ethylene glycol, 318.15 K) of 0.0119. It also gave a solubility (mole fraction) (in ethylene glycol, 323.15 K) of 0.0138, a solubility (mole fraction) (in ethylene glycol, 328.15 K) of 0.0164 and a solubility (mole fraction) (in isobutanol, 283.15 K) of 0.000751. It also gave a solubility (mole fraction) (in isobutanol, 288.15 K) of 0.000942, a solubility (mole fraction) (in isobutanol, 293.15 K) of 0.00119 and a solubility (mole fraction) (in isobutanol, 298.15 K) of 0.0015. The solubility (mole fraction) (in isobutanol, 303.15 K) was 0.00187, the solubility (mole fraction) (in isobutanol, 308.15 K) was 0.00233 and the solubility (mole fraction) (in isobutanol, 313.15 K) was 0.00286. It also gave a solubility (mole fraction) (in isobutanol, 318.15 K) of 0.00342, a solubility (mole fraction) (in isobutanol, 323.15 K) of 0.00403 and a solubility (mole fraction) (in isobutanol, 328.15 K) of 0.00467. For the same compound, the solubility (mole fraction) (in isopropanol, 283.15 K) was 0.00127, the solubility (mole fraction) (in isopropanol, 288.15 K) was 0.0015 and the solubility (mole fraction) (in isopropanol, 293.15 K) was 0.00185. It also gave a solubility (mole fraction) (in isopropanol, 298.15 K) of 0.0023, a solubility (mole fraction) (in isopropanol, 303.15 K) of 0.00286 and a solubility (mole fraction) (in isopropanol, 308.15 K) of 0.00341. The solubility (mole fraction) (in isopropanol, 313.15 K) was 0.00408, the solubility (mole fraction) (in isopropanol, 318.15 K) was 0.00492 and the solubility (mole fraction) (in isopropanol, 323.15 K) was 0.00579. For the same compound, the solubility (mole fraction) (in isopropanol, 328.15 K) was 0.00677, the solubility (mole fraction) (in n-butanol, 283.15 K) was 0.000449 and the solubility (mole fraction) (in n-butanol, 288.15 K) was 0.000554. For the same compound, the solubility (mole fraction) (in n-butanol, 293.15 K) was 0.000712, the solubility (mole fraction) (in n-butanol, 298.15 K) was 0.000907 and the solubility (mole fraction) (in n-butanol, 303.15 K) was 0.00116. It also gave a solubility (mole fraction) (in n-butanol, 308.15 K) of 0.00144, a solubility (mole fraction) (in n-butanol, 313.15 K) of 0.00176 and a solubility (mole fraction) (in n-butanol, 318.15 K) of 0.00213. It also gave a solubility (mole fraction) (in n-butanol, 323.15 K) of 0.00253, a solubility (mole fraction) (in n-butanol, 328.15 K) of 0.00301 and a solubility (mole fraction) (in n-propanol, 283.15 K) of 0.00096. For the same compound, the solubility (mole fraction) (in n-propanol, 288.15 K) was 0.00119, the solubility (mole fraction) (in n-propanol, 293.15 K) was 0.00151 and the solubility (mole fraction) (in n-propanol, 298.15 K) was 0.00189. For the same compound, the solubility (mole fraction) (in n-propanol, 303.15 K) was 0.00228, the solubility (mole fraction) (in n-propanol, 308.15 K) was 0.00276 and the solubility (mole fraction) (in n-propanol, 313.15 K) was 0.00327. The solubility (mole fraction) (in n-propanol, 318.15 K) was 0.00381, the solubility (mole fraction) (in n-propanol, 323.15 K) was 0.00447 and the solubility (mole fraction) (in n-propanol, 328.15 K) was 0.00533. The solubility (mole fraction) (in water, 283.15 K) was 0.000322, the solubility (mole fraction) (in water, 288.15 K) was 0.000395 and the solubility (mole fraction) (in water, 293.15 K) was 0.000498. The solubility (mole fraction) (in water, 298.15 K) was 0.0006, the solubility (mole fraction) (in water, 303.15 K) was 0.000754 and the solubility (mole fraction) (in water, 308.15 K) was 0.000924. It also gave a solubility (mole fraction) (in water, 313.15 K) of 0.00112, a solubility (mole fraction) (in water, 318.15 K) of 0.00137 and a solubility (mole fraction) (in water, 323.15 K) of 0.00161. It also gave a solubility (mole fraction) (in water, 328.15 K) of 0.00186.
